Assay results reported in patent publication US5612341A, “Brominated hexahydroxybiphenyl derivatives” (Biotech Research Laboratories, priority 1995, dated 1997).
Values after ≈ are worked out from the molar mass of the structure shown. Structures can show the parent of a compound that is named as a salt. Where two headings read alike, the source gives them in different places.

Tests used:
Type in all cases: cell-based
[1] = test system: chronically HIV-1 infected promonocytic cell line, U1; experiment: Virus expression in chronically HIV-1 infected promonocytic U1 cells (p24 ELISA)
Procedure: Therefore, compounds 4 and 5 were separately added for 72 hours to the chronically HIV-1 infected T cell line, ACH-2, and to the chronically HIV-1 infected promonocytic cell line, U1.
HIV-1 chronically infected T cell line, ACH-2, ^15 and HIV-1 chronically infected promonocytic cell line, U1 ^16 were continuously maintained in RPMI1640 with 10% fetal calf serum (FCS). For experiments, the cell lines were only used in log-phase of growth. Cells (1×10^6 cells/well) and either various concentrations of 4,5, AZT or media alone were added to 24-well plates in the presence or absence of PMA (10^-8 M). After 72 hours at 37° C. and 5% CO2, an aliquot of the cell-free supernatants was collected and analyzed for p24 antigen by ELISA.

HIV-1 (IIIB isolate) = experiment: microbe, parasite or virus in culture; details: for Therapeutic Index: 5760 min; for EC50: acutely infected H9 lymphocytes; for anti-HIV activity: result in words
Procedure: (§1) The H9 T cell line was maintained in continuous culture with complete medium (RPMI and 10% fetal calf serum) at 5% CO2 and 37° C. and was used in experiments only when in log phase of growth. The cells were incubated with HIV-1 (IIIB isolate, TCID50 10^4 IU/mL, at a multiplicity of infection of 0.1-0.01 IU/cell) for 1 hour at 37° C. and 5% CO2. The cells then were washed thoroughly to remove unabsorbed virions and resuspended at 4×10^5 cells/mL in complete medium. Aliquots (1 mL) were placed in wells of 24-well culture plates containing an equal volume of test compound (diluted in the culture medium). After a four day incubation at 37° C., cell density of uninfected cultures was determined by counting cells in a Coulter counter to assess toxicity of the test compound. A p24 antigen ELISA assay was used to determine the level of virus released in the medium of the HIV-infected cultures. The p24 antigen assay uses an HIV-1 anti-p24 specific monoclonal antibody as the capture antibody coated on 96 well plates. Following a sample incubation period, rabbit serum containing antibodies for HIV-1 p24 is used to tag any p24 "captured" onto the microtiter well surface. […] The cut-off for the p24 ELISA assay is 12.5 pg/mL. P24 in the culture medium was quantitated against a standard curve containing known amounts of p24. The effective (EC50) and inhibitory concentrations (for anti-HIV activity and cytotoxicity, respectively) were determined.

H9 T cell line = experiment: Toxicity to uninfected H9 cells (cell count)
Procedure: as §1

[2] = Table I, cytotoxicity, uninfected H9 cells
[3] = Homo sapiens, H9, Table I, cytotoxicity, uninfected H9 cells, read-out: IC50
[4] = Human immunodeficiency virus 1, IIIB, Lymphocyte, Table I, read-out: EC50
[5] = T-cell, Table IA, concentration that causes a 50% reduction in total cell number, read-out: IC50
[6] = Human immunodeficiency virus 1, IIIB, Lymphocyte, Table IA, read-out: EC50

Row | Compound | Therapeutic Index (HIV-1 (IIIB isolate); Table I, IC50/EC50) | anti-HIV activity (HIV-1 (IIIB isolate)) | IC50 (H9 T cell line; [3]) [µg/mL] | EC50 (HIV-1 (IIIB isolate); [4]) [µg/mL] | IC50 (H9 T cell line; [5]) [µg/mL] | other results
1 | Cc1cn([C@H]2C[C@H](N=[N+]=[N-])[C@@H](CO)O2)c(=O)[nH]c1=O [AZT, azidothymidine, reference compound] | – | – | – | – | – | p24 ([1]; +Media, 0.1 μg/mL): 18 pg/mL; p24 ([1]; +Media, 1 μg/mL): 12 pg/mL; p24 ([1]; +Media, 10 μg/mL): 13 pg/mL; p24 ([1]; +Media, 100 μg/mL): 22 pg/mL; p24 ([1]; +PMA, 0.1 μg/mL): 8,070 pg/mL; p24 ([1]; +PMA, 1 μg/mL): 8,218 pg/mL; p24 ([1]; +PMA, 10 μg/mL): 9,299 pg/mL; p24 ([1]; +PMA, 100 μg/mL): 9,338 pg/mL
2 | COc1c(Br)c(C(=O)O)c(-c2c3c(c(OC)c(Br)c2C(=O)O)OCO3)c2c1OCO2 [Compound 6, 3,3'-Dibromo-4,4'-dimethoxy-5,6,5'6'-bimethylenedioxy-2,2'-dicarboxy biphenyl] | 1 | decrease in the anti-HIV activity | – | – | – | EC50 (HIV-1 (IIIB isolate); Table I): > 100 µg/mL; IC50 (H9 T cell line; [2]): > 100 µg/mL
3 | COc1c(Br)c(C(=O)O)c(-c2c3c(c(OC)c(Br)c2C(=O)O)OCO3)c2c1OCO2 [Compound 7, 3,3'-Dibromo-4,4'-dimethoxy-5,6,5'6'-bimethylenedioxy-2,2'-dicarboxy biphenyl disodium salt] | – | decrease in the anti-HIV activity | – | – | – | Therapeutic Index (HIV-1 (IIIB isolate); Table I, IC50/EC50, disodium salt): 1; EC50 (HIV-1 (IIIB isolate); Table I, disodium salt): > 100 µg/mL; IC50 (H9 T cell line; Table I, cytotoxicity, uninfected H9 cells, disodium salt): > 100 µg/mL
4 | COc1c2c(c3c(c1Br)c(=O)oc(=O)c1c(Br)c(OC)c4c(c13)OCO4)OCO2 [Compound 8, 3,3'-Dibromo-4,4'-dimethoxy-5,6,5'6'-bimethylenedioxy biphenyl 2,2'-dicarboxylic anhydride] | – | – | > 100 | – | – | –
5 | CCOC(=O)c1c(Br)c(OC)c2c(c1-c1c3c(c(OC)c(Br)c1C(=O)O)OCO3)OCO2 [Compound 9, 3,3'-Dibromo-4,4'-dimethoxy-5,6,5'6'-bimethylenedioxy-2-ethoxycarbonyl-2'-carboxy biphenyl] | > 1.7 | decrease in the anti-HIV activity | > 100 | 60 (≈ 104 µM) | – | –
6 | CCOC(=O)c1c(Br)c(OC)c2c(c1-c1c3c(c(OC)c(Br)c1C(=O)O)OCO3)OCO2 [Compound 10, 3,3'-Dibromo-4,4'-dimethoxy-5,6,5'6'-bimethylenedioxy-2-ethoxycarbonyl-2'-carboxy biphenyl monosodium salt] | – | – | – | – | – | IC50 (H9 T cell line; [2]): > 100 µg/mL
7 | COc1c(Br)c(C(=O)O)c(-c2c3c(c(OC)c(Br)c2C(=O)OCC[N+](C)(C)C)OCO3)c2c1OCO2 [Compound 11, 3,3'-Dibromo-4,4'-dimethoxy-5,6,5'6'-bimethylenedioxy-2-carboxy-2'-(β-N,N,N-trimethylamino)ethoxycarbonyl biphenyl chloride] | 1 | decrease in the anti-HIV activity | > 100 | > 100 | – | –
8 | COc1c(Br)c(C(=O)O)c(-c2c3c(c(OC)c(Br)c2C(=O)NCCN2CCNCC2)OCO3)c2c1OCO2 [Compound 12, 3,3'-Dibromo-4,4'-dimethoxy-5,6,5'6'-bimethylenedioxy-2-carboxy-2'-(β-N-piperazine)ethylcarbonyl biphenyl] | > 3.3 | decrease in the anti-HIV activity | > 100 | 30 (≈ 45.5 µM) | – | –
9 | COc1c(Br)c(C(=O)O)c(-c2c3c(c(OC)c(Br)c2C(=O)NCCN2CCCC2)OCO3)c2c1OCO2 [Compound 13, 3,3'-Dibromo-4,4'-dimethoxy-5,6,5'6'-bimethylenedioxy-2-carboxy-2'-(β-N-pyrrolidinyl)ethylcarbonyl biphenyl hydrobromide] | 1 | decrease in the anti-HIV activity | > 100 | > 100 | – | –
10 | COc1c(Br)c(C(=O)O)c(-c2c3c(c(OC)c(Br)c2C(=O)O)OCO3)c2c1OCO2 [Compound 14, 3,3'-Dibromo-4,4'-dimethoxy-5,6,5',6'-bimethylenedioxy-2,2'-dicarboxy biphenyl di-1-(2-hydroxyethyl)pyrrolidinium salts] | – | – | – | – | – | EC50 (HIV-1 (IIIB isolate); Table I): 17 µg/mL
11 | CCCCCCOC(=O)c1c(Br)c(OC)c2c(c1-c1c3c(c(OC)c(Br)c1C(=O)OCCCCCC)OCO3)OCO2 [Compound 15, 3,3'-Dibromo-4,4'-dimethoxy-5,6,5'6'-bimethylenedioxy-2,2'-dihexanoxycarbonyl biphenyl] | > 50 | – | > 100 | 2 (≈ 2.79 µM) | – | –
12 | COC(=O)c1cc(OCc2ccccc2)c(OCc2ccccc2)c(OC)c1-c1c(OC)c(OCc2ccccc2)c(OCc2ccccc2)c(Br)c1C(=O)OC [Compound 16, 2,2'-Dimethoxycarbonyl-3-bromo-4,4',5,5'-tetrakis(benxyloxy)-6,6'-dimethoxybiphenyl] | 1 | no anti-HIV activity | > 100 | > 100 | – | –
13 | COC(=O)c1c(Br)c(OCc2ccccc2)c(OCc2ccccc2)c(OC)c1-c1c(OC)c(OCc2ccccc2)c(OCc2ccccc2)c(Br)c1C(=O)OC [Compound 17, 2,2'-Dimethoxycarbonyl-3,3'-dibromo-4,4'5,5'-tetrakis(benzyloxy)-6,6'-dimethoxy biphenyl] | 1 | no anti-HIV activity | > 100 | > 100 | – | –
14 | COc1c(OCc2ccccc2)c(OCc2ccccc2)cc(CO)c1-c1c(CO)c(Br)c(OCc2ccccc2)c(OCc2ccccc2)c1OC [Compound 18, 2,2'-Dihydroxymethyl-3-bromo-4,4'5,5'-tetrakis(benzyloxy)-6,6'-dimethoxy biphenyl] | > 1 | no anti-HIV activity | > 100 | 100 (≈ 129 µM) | – | –
15 | COc1c(OCc2ccccc2)c(OCc2ccccc2)c(Br)c(CO)c1-c1c(CO)c(Br)c(OCc2ccccc2)c(OCc2ccccc2)c1OC [Compound 19, 2,2'-Dihydroxymethyl-3,3'-dibromo-4,4'5,5'-tetrakis(benzyloxy)-6,6'-dimethoxy diphenyl] | 1 | no anti-HIV activity | > 100 | > 100 | – | –
16 | COC(=O)c1c2c(c(OC)c(Br)c1-c1c(Br)c(OC)c3c(c1C(=O)OC)OCO3)OCO2 [Compound 110, 6,6'-Dibromo-5,5'-dimethoxy-3,4,3'4'-bimethylenedioxy-2,2'-dimethoxycarbonyl biphenyl] | – | – | – | – | 45 (≈ 78.1 µM) | EC50 (HIV-1 (IIIB isolate); Table IA): no inhibition
17 | COC(=O)c1cc2c(c(OC)c1-c1c(C(=O)OC)cc3c(c1OC)OCO3)OCO2 [Compound 114, 6,6'-dimethoxy-4,5,4'5'-bimethylenedioxy-2,2'-dimethoxycarbonyl biphenyl] | – | – | – | – | > 100 | EC50 (HIV-1 (IIIB isolate); [6]): 65 µg/mL (≈ 155 µM); Therapeutic Index (HIV-1 (IIIB isolate); Table IA, ratio IC50/EC50): > 1.2
18 | COC(=O)c1cc2c(c(OC)c1-c1c(C(=O)OC)cc(OC)c3c1OCO3)OCO2 [Compound 115, 4,6'-dimethoxy-5,6,4'5'-binethylenedioxy,2,2'-dimethoxycarbonyl biphenyl] | – | – | – | – | > 100 | EC50 (HIV-1 (IIIB isolate); [6]): 7.5 µg/mL (≈ 17.9 µM); Therapeutic Index (HIV-1 (IIIB isolate); Table IA, ratio IC50/EC50): > 13
19 | COC(=O)c1c(-c2cc(OC)c3c(c2C(=O)OC)OCO3)cc(OC)c2c1OCO2 [Compound 116, 5,5'-Dimethoxy-3,4,3 '4'-bismethylenedioxy-2,2'-dimethoxycarbonyl biphenyl] | – | – | – | – | > 100 | EC50 (HIV-1 (IIIB isolate); [6]): 70 µg/mL (≈ 167 µM); Therapeutic Index (HIV-1 (IIIB isolate); Table IA, ratio IC50/EC50): > 1.4
20 | COC(=O)c1cc(-c2cc(C(=O)OC)c3c(c2OC)OCO3)c(OC)c2c1OCO2 [Compound 117, 2,2'-Dimethoxy-3,4,3'4'-bismethylenedioxy-5,5'-dimethoxycarbonyl biphenyl] | – | – | – | – | 1.8 (≈ 4.3 µM) | EC50 (HIV-1 (IIIB isolate); Table IA): no inhibition
21 | COC(=O)c1c(Br)c2c(c(OC)c1-c1c(OC)c3c(c(Br)c1C(=O)OC)OCO3)OCO2 [Compound 118, 3,3'-Dibromo-6,6'-dimethoxy-4,5,4,5'-bimethylenedioxy-2,2'-dimethoxycarbonyl biphenyl] | – | – | – | – | > 100 | EC50 (HIV-1 (IIIB isolate); [6]): 90 µg/mL (≈ 156 µM); Therapeutic Index (HIV-1 (IIIB isolate); Table IA, ratio IC50/EC50): > 1.1
22 | COC(=O)c1c(Br)c2c(c(OC)c1-c1c3c(c(OC)c(Br)c1C(=O)OC)OCO3)OCO2 [Compound 119, 3,3'-Dibromo-4,6'-dimethoxy-5,6,4'5'-bimethylenedioxy-2,2'-dimethoxycarbonyl biphenyl] | – | – | – | – | > 100 | EC50 (HIV-1 (IIIB isolate); [6]): 2.1 µg/mL (≈ 3.64 µM); Therapeutic Index (HIV-1 (IIIB isolate); Table IA, ratio IC50/EC50): > 48
